According to US20250304582A1, “Bicyclic Ureas As Kinase Inhibitors” (Incyte Corporation, priority 2024, published 2025):

Experiments:
[1] = biological target: T1, catalytic domain (JH1, amino acids 826-1132) of human JAK2 (Homo sapiens, UniProt O60674); assay: JAK2 LanthaScreen JH1 Binding Assay; conditions: 50 nM fluorescent JAK2-JH1 tracer, 2 hours at 25° C.; read-out: JH1 BIND (EX. A)
T1 construct: catalytic domain (JH1, amino acids 826-1132) of human JAK2; FLAG (N); purchased Carna Biosciences 08-445-20N; host or cells: baculovirus expression system
Summary of the method: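 FLAG-tagged biotinylated JAK2 JH1 (1.5 nM) was incubated 2 h at 25° C with compound, 50 nM fluorescent tracer and 0.5 nM Streptavidin-Tb in Tris pH 7.5 buffer. Tracer displacement read by TR-FRET; nonspecific binding defined with 2 mM ATP. IC50 from four-parameter fit.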

[2] = biological target: T2, catalytic domain (JH1, amino acids 808-1132) of human JAK2 (Homo sapiens, UniProt O60674); assay: JAK2 HTRF Enzyme Activity Assay; assay type: biochemical; conditions: ATP (30 μM or 1 mM; not stated which for the table), 60 minutes at 25° C.; read-out: JAK2 HTRF (Ex. D)
T2 construct: catalytic domain (JH1, amino acids 808-1132) of human JAK2; His (N); purchased BPS Bioscience 40450; host or cells: baculovirus expression system
Summary of the method: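 N-terminal His-tagged, baculovirus-expressed JH1 domain (0.015 nM) reacts 60 min at 25 °C with 500 nM biotinylated peptide and 30 μM or 1 mM ATP in Tris pH 7.5/10 mM MgCl2. Phosphorylation is detected by HTRF with Eu-anti-phosphotyrosine (PY20) and streptavidin-APC after EDTA stop. IC50 comes from four-parameter fits.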

[3] = biological target: T3, pseudo-kinase domain (JH2, amino-acids 536-812) of human V617F mutant JAK2 (Homo sapiens, UniProt O60674, F794H/V617F/W659A/W777A); assay: JAK2 LanthaScreen JH2-V617F Binding Assay; conditions: 50 nM Fluorescent JAK2-JH2 Tracer, 1 hour at 25° C.; read-out: JH2 BIND V617F (Ex. C)
T3 construct: JH2, amino-acids 536-812 with 3 surface mutations W659A, W777A, F794H; His (C); purchased BPS Bioscience 79498; host or cells: baculovirus expression system
Summary of the method: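 Biotinylated His-Avi-tagged JH2 construct (536-812, W659A/W777A/F794H) at 0.26 nM, with 50 nM fluorescent JH2 tracer and 0.25 nM streptavidin-Tb, in pH 7.5 Tris/MgCl2 buffer; 1 h at 25° C. Non-specific binding defined with 2 mM ATP. IC50 derived from TR-FRET signal by four-parameter dose-response fit.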

[4] = biological target: T4, pseudo-kinase domain (JH2, amino-acids 536-812) of human Wild Type JAK2 (Homo sapiens, UniProt O60674, F794H/W659A/W777A); assay: JAK2 LanthaScreen JH2-WT Binding Assay; conditions: 50 nM Fluorescent JAK2-JH2 Tracer, 1 hour at 25° C.; read-out: JH2 BIND WT (EX. B)
T4 construct: JH2, amino-acids 536-812 with 3 surface mutations W659A, W777A, F794H; His (C); purchased BPS Bioscience 79463; host or cells: baculovirus expression system
Summary of the method: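 JH2 domain (0.145 nM; His-Avi-tagged, biotinylated, baculovirus-expressed) incubated 1 h at 25° C. with compounds, 50 nM fluorescent JH2 tracer and 0.25 nM streptavidin-Tb in pH 7.5 Tris buffer with MgCl2, EGTA, DTT. Non-specific binding defined with 2 mM ATP. TR-FRET tracer displacement read; IC50 from four-parameter fit.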

T1 sequence (O60674 826-1132): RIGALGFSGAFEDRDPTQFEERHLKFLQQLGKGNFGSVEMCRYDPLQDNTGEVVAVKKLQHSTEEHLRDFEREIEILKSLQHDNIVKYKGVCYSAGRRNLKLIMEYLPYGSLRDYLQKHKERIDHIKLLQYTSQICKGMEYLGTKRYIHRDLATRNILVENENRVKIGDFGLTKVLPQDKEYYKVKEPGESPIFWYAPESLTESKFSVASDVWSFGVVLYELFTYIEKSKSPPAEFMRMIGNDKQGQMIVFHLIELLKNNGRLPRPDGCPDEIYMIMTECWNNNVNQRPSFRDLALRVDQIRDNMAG
T2 sequence (O60674 808-1132): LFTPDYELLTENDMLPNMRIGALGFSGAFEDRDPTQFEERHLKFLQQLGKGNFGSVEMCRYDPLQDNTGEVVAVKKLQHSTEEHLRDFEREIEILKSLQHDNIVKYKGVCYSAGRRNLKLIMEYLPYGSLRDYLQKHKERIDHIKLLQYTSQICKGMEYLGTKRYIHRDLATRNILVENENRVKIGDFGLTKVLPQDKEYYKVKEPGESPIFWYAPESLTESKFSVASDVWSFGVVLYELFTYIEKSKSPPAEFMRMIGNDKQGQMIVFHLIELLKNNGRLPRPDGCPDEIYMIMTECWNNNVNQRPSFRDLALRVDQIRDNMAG
T3 sequence (O60674 536-812 V617F/W659A/W777A/F794H): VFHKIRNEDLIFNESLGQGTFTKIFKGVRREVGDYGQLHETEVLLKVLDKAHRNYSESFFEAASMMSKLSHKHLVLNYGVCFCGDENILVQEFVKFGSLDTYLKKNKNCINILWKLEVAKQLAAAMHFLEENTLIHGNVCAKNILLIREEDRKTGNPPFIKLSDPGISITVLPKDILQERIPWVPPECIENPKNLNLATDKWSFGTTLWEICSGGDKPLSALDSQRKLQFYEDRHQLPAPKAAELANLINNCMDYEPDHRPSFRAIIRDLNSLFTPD
T4 sequence (O60674 536-812 W659A/W777A/F794H): as the sequence (O60674 536-812 V617F/W659A/W777A/F794H) above, with F82V counted along it

Row | Compound | IC50 [1] [nM] | IC50 [2] [nM] | IC50 [3] [nM] | IC50 [4] [nM]
1 | [2H]C([2H])([2H])n1c(=O)n([C@@H]2CC[C@@H](NC(=O)OC)C2)c2cc(Nc3ccc4cncc(C)c4n3)ncc21 [Example 28, Methyl ((1R,3R)-3-(3-(methyl-d3)-6-((8-methyl-1,6-naphthyridin-2-yl)amino)-2-oxo-2,3-dihydro-1H-imidazo[4,5-c]pyridin-1-yl)cyclopentyl)carbamate] | > 1000 | > 1000 | ≤ 10 | ≤ 10
2 | [2H]C([2H])([2H])n1c(=O)n([C@@H]2CC[C@@H](NC(=O)OC)C2)c2cc(Nc3cc(C(C)O)c4cccc(C(F)(F)F)c4n3)ncc21 (stereo partly drawn) [Example 2, Methyl ((1R,3R)-3-(6-((4-(1-hydroxyethyl)-8-(trifluoromethyl)quinolin-2-yl)amino)-3-(methyl-d3)-2-oxo-2,3-dihydro-1H-imidazo[4,5-c]pyridin-1-yl)cyclopentyl)carbamate] | > 1000 | > 1000 | ≤ 10 | ≤ 10
3 | [2H]C([2H])([2H])n1c(=O)n([C@@H]2CC[C@@H](NC(=O)OC)C2)c2cc(Nc3ccc4ncc(C(F)(F)F)n4n3)ncc21 [Example 31, Methyl ((1R,3R)-3-(3-(methyl-d3)-2-oxo-6-((3-(trifluoromethyl)imidazo[1,2-b]pyridazin-6-yl)amino)-2,3-dihydro-1H-imidazo[4,5-c]pyridin-1-yl)cyclopentyl)carbamate] | > 1000 | > 1000 | ≤ 10 | ≤ 10
4 | COC(=O)N[C@H]1CC[C@H](n2c(=O)n(C)c3cnc(Nc4ccc5cccc(Cl)c5n4)cc32)C1 [Example 40, Methyl ((1S,3S)-3-(6-((8-chloroquinolin-2-yl)amino)-3-methyl-2-oxo-2,3-dihydro-1H-imidazo[4,5-c]pyridin-1-yl)cyclopentyl)carbamate] | > 1000 | > 1000 | 10 to 100 | ≤ 10
5 | COC(=O)N[C@@H]1CC[C@@H](n2c(=O)n(C)c3cnc(Nc4ccc5cccc(C)c5n4)cc32)C1 [Example 39, Methyl ((1R,3R)-3-(3-methyl-6-((8-methylquinolin-2-yl)amino)-2-oxo-2,3-dihydro-1H-imidazo[4,5-c]pyridin-1-yl)cyclopentyl)carbamate] | > 1000 | > 1000 | 10 to 100 | ≤ 10
6 | [2H]C([2H])([2H])n1c(=O)n([C@@H]2CC[C@@H](NC(=O)OC)C2)c2cc(Nc3ccc4nccc(C#N)c4n3)ncc21 [Example 36, Methyl ((1R,3R)-3-(6-((8-cyano-1,5-naphthyridin-2-yl)amino)-3-(methyl-d3)-2-oxo-2,3-dihydro-1H-imidazo[4,5-c]pyridin-1-yl)cyclopentyl)carbamate] | > 1000 | > 1000 | ≤ 10 | ≤ 10
7 | COC(=O)N[C@@H]1CC[C@@H](n2c(=O)n(C)c3cnc(Nc4ccc5cccc(C#N)c5n4)cc32)C1 [Example 43, Methyl ((1R,3R)-3-(6-((8-cyanoquinolin-2-yl)amino)-3-methyl-2-oxo-2,3-dihydro-1H-imidazo[4,5-c]pyridin-1-yl)cyclopentyl)carbamate] | > 1000 | > 1000 | ≤ 10 | ≤ 10
8 | COC(=O)N[C@@H]1CC[C@@H](n2c(=O)n(C)c3cnc(Nc4ccc5ccc(C#N)cc5n4)cc32)C1 [Example 44, Methyl ((1R,3R)-3-(6-((7-cyanoquinolin-2-yl)amino)-3-methyl-2-oxo-2,3-dihydro-1H-imidazo[4,5-c]pyridin-1-yl)cyclopentyl)carbamate] | > 1000 | > 1000 | 100 to 500 | 100 to 500
9 | [2H]C([2H])([2H])n1c(=O)n([C@@H]2CC[C@@H](NC(=O)OC)C2)c2cc(Nc3cc(C(C)(C)O)c4cc(Cl)cc(C(F)(F)F)c4n3)ncc21 [Example 20, Methyl ((1R,3R)-3-(6-((6-chloro-4-(2-hydroxypropan-2-yl)-8-(trifluoromethyl)quinolin-2-yl)amino)-3-(methyl-d3)-2-oxo-2,3-dihydro-1H-imidazo[4,5-c]pyridin-1-yl)cyclopentyl)carbamate] | > 1000 | > 1000 | ≤ 10 | ≤ 10
10 | [2H]C([2H])([2H])n1c(=O)n([C@@H]2CC[C@@H](NC(=O)OC)C2)c2cc(Nc3ccc4cccc([N+](=O)[O-])c4n3)ncc21 [Example 35, Methyl ((1R,3R)-3-(3-(methyl-d3)-6-((8-nitroquinolin-2-yl)amino)-2-oxo-2,3-dihydro-1H-imidazo[4,5-c]pyridin-1-yl)cyclopentyl)carbamate] | > 1000 | > 1000 | ≤ 10 | ≤ 10
11 | [2H]C([2H])([2H])n1c(=O)n([C@@H]2CC[C@@H](NC(=O)OC)C2)c2cc(Nc3cc(NC(=O)COC)c4cccc(C(F)(F)F)c4n3)ncc21 [Example 22, Methyl ((1R,3R)-3-(6-((4-(2-methoxyacetamido)-8-(trifluoromethyl)quinolin-2-yl)amino)-3-(methyl-d3)-2-oxo-2,3-dihydro-1H-imidazo[4,5-c]pyridin-1-yl)cyclopentyl)carbamate] | > 1000 | > 1000 | ≤ 10 | ≤ 10
12 | [2H]C([2H])([2H])n1c(=O)n([C@@H]2CC[C@@H](NC(=O)OC)C2)c2cc(Nc3cc(C)c4cccc(C(F)(F)F)c4n3)ncc21 [Example 4, Methyl ((1R,3R)-3-(3-(methyl-d3)-6-((4-methyl-8-(trifluoromethyl)quinolin-2-yl)amino)-2-oxo-2,3-dihydro-1H-imidazo[4,5-c]pyridin-1-yl)cyclopentyl)carbamate] | > 1000 | > 1000 | ≤ 10 | ≤ 10
13 | [2H]C([2H])([2H])n1c(=O)n([C@@H]2CC[C@@H](NC(=O)OC)C2)c2cc(Nc3cc(C(C)(O)C(F)(F)F)c4cccc(C(F)(F)F)c4n3)ncc21 (stereo partly drawn) [Example 3, Methyl ((1R,3R)-3-(3-(methyl-d3)-2-oxo-6-((4-(1,1,1-trifluoro-2-hydroxypropan-2-yl)-8-(trifluoromethyl)quinolin-2-yl)amino)-2,3-dihydro-1H-imidazo[4,5-c]pyridin-1-yl)cyclopentyl)carbamate] | > 1000 | > 1000 | ≤ 10 | ≤ 10
14 | [2H]C([2H])([2H])n1c(=O)n([C@@H]2CC[C@@H](NC(=O)OC)C2)c2cc(Nc3ccc4cc(C#N)cc(C(F)(F)F)c4n3)ncc21 [Example 26, Methyl ((1R,3R)-3-(6-((6-cyano-8-(trifluoromethyl)quinolin-2-yl)amino)-3-(methyl-d3)-2-oxo-2,3-dihydro-1H-imidazo[4,5-c]pyridin-1-yl)cyclopentyl)carbamate] | > 1000 | > 1000 | ≤ 10 | ≤ 10
15 | [2H]C([2H])([2H])n1c(=O)n([C@@H]2CC[C@@H](NC(=O)OCc3ccccc3)C2)c2cc(Nc3ccc4cccc(C(F)(F)F)c4n3)ncc21 [Example 8, Benzyl ((1R,3R)-3-(3-(methyl-d3)-2-oxo-6-((8-(trifluoromethyl)quinolin-2-yl)amino)-2,3-dihydro-1H-imidazo[4,5-c]pyridin-1-yl)cyclopentyl)carbamate] | > 1000 | > 1000 | 10 to 100 | 10 to 100
16 | COC(=O)N[C@@H]1CC[C@@H](n2c(=O)n(C)c3cnc(Nc4ccc5cc(C#N)ccc5n4)cc32)C1 [Example 45, Methyl ((1R,3R)-3-(6-((6-cyanoquinolin-2-yl)amino)-3-methyl-2-oxo-2,3-dihydro-1H-imidazo[4,5-c]pyridin-1-yl)cyclopentyl)carbamate] | > 1000 | > 1000 | 100 to 500 | 10 to 100
